{"source": "patent US8114840B2", "about": "“Medicament containing activated antithrombin III” (Hamburger Stiftung zur Forderung Von Wissenschaft und Kultur, priority 2000, dated 2012)", "key": {"[1]": {"test_system": "thrombocytes", "test": "Adhesion of thrombocytes to adhesion proteins (microtitre plate, hexosaminidase)", "format": "cell-based", "conditions": "for inhibition of IDAAT-mediated adhesion of thrombocytes to collagen / inhibition of IDAAT-mediated adhesion of thrombocytes to thrombospondin (immobilized TSP-1): EDTA 5 mM; for inhibition of IDAAT-mediated adhesion of thrombocytes to thrombospondin (immobilized TSP-1): integrins 5 μg/ml, Wortmannin 20 nM, LY294002 50 μm, clone 37 with Fc receptor blocked by IV.3; for inhibition of IDAAT-mediated adhesion: Heparan sulfate 0-10 μg/ml, sulfatide 0-20 μg/ml", "method": "The adhesion of thrombocytes was carried out according to Santoro et al, 1994. […] Non-adhering thrombocytes were thoroughly washed out. The number of adhering platelets was determined by lysing the platelets with Triton X-100 and determining the lysosomal enzyme hexosaminidase. In order to calibrate the adhesion assay a calibration series containing a known and increasing number of platelets was added to the microtitre plate and the absorbance of the reacted substrate p-nitrophenyl-N-acetyl-β-glucosaminide was determined in relation to the number of platelets."}, "[2]": {"test_system": "S. aureus binding to thrombocytes", "test": "S. aureus-thrombocyte associate formation, flow cytometry", "format": "cell-based", "method": "Thrombocytes were labelled with a thrombocyte-specific phycoerythrin-conjugated anti-GPIX antibody (clone Beb 1). Bacteria (various S. aureus strains) were adjusted with Tris-buffered saline solution (TBS) to a number of 250,000 microorganisms/μl and labelled with the RNA-dye Syto 13 [MoBiTec, Göttingen] at a concentration of 2 μM. Labelled bacteria and labelled thrombocytes were co-incubated for 10 minutes at a ratio of 10:1.\nThe cell population were analysed in a flow cytometer. Cells that were positive for both fluorochromes were classified as associates (see FIG. 12a). Thrombin stimulation and release of TSP from the α-granula of the platelets increased the percentage of platelets carrying bacteria by 2.5-fold relative to the total number of thrombocytes."}, "[3]": {"test_system": "monocytes", "test": "TSP-1 binding to monocytes, flow cytometry with anti-TSP antibody clone P10-PE", "format": "cell-based, human", "conditions": "10 μg/ml purified TSP-1, without IDAAT; ~1% without additions", "method": "Whereas without the addition of purified TSP-1 and without the addition of IDAAT only ˜1% of eluted human monocytes could be detected in a flow cytometer by an antibody (clone P10) which recognizes TSP-1 on the cell surface, the number increases to ca. 5% by adding 10 μg/ml purified TSP-1.\n(§1) Apoptotic PMNL were incubated for 30 minutes with Hepes-Tyrode buffer pH 7.4, washed, labelled with the anti-TSP antibody P10-PE and the fluorescence of 3000 cells was measured in a flow cytometer • b) PMNL were made apoptotic by incubation in a cell culture medium for 24 hours in an incubator according to Savill et al., 1992. Apoptotic PMNL were incubated for 30 minutes with TSP-1 (5 μg/ml) and IDAAT (10 μg/ml) in Hepes-Tyrode buffer pH 7.4, washed, labelled with the TSP antibody P10-PE and the fluorescence of 3000 cells was measured in a flow cytometer. • c) Procedure as in a and b: IDAAT was used at increasing concentrations, IDAAT mediates the binding of thrombospondin (10 μg/ml) that was either present endogenously or added exogenously. FIG. 3: IDAAT cross-links apoptotic PMNL with monocytes by means of TSP Eluted PMNL and eluted monocytes were incubated together for 30 minutes at room temperature with TSP and IDAAT at various concentrations and the cells were fixed. […] PE and FITC positive associates were measured using a flow cytometer. […]"}, "[4]": {"test_system": "monocytes through a HMEC-1 monolayer", "test": "Transmigration of monocytes through endothelium (Transwell)", "format": "cell-based, human", "conditions": "purified TSP 25 μg/ml", "method": "Transmigration experiments were carried out as described by Kielbassa et al., 1998. The addition of IDAAT to the culture medium of the monocytes during a transmigration experiment stimulates dose-dependently the transmigration of monocytes through the endothelium by 2-3-fold (see FIG. 4).\nas §1, with “exogenously.” for “exogenously. FIG. 3: IDAAT cross-links apoptotic PMNL with monocytes by means of TSP Eluted PMNL and eluted monocytes were incubated together for 30 minutes at room temperature with TSP and IDAAT at various concentrations and the cells were fixed.”\nAfter a 4 hour transmigration period, the inserts were carefully removed, the cell culture plate was placed for 30 min on ice in order to detach the adhered monocytes and the number of transmigrated monocytes was counted."}, "[5]": {"test_system": "thrombocytes", "test": "Thrombocyte aggregation according to Born", "format": "cell-based", "conditions": "purified thrombospondin 25 μg/ml alone", "method": "Gel-filtered platelets (200,000/μl) in Hepes-Tyrode buffer pH 7.4 containing fibrinogen (100 μg/ml) were examined in an aggregometer according to Born.\nThe method used was elucidated in detail in the description of the example. FIG. 21: The addition of monocytes (100/μl) to thrombocytes (300,000/μl) increases the adhesion of thrombocytes to TSP-1, whereas the addition of erythrocytes (20,000/μl) has an inhibitory effect. The method used was elucidated in detail in the description of the example. FIG. 22: The IDAAT-induced thrombocyte adhesion was inhibited by the inhibitors of PI-3 kinase Wortmannin (20 nM) and LY294002 (50 μm). For this purpose Wortmannin and LY294002 were preincubated for 10 minutes before adding IDAAT. FIG. 23: IDAAT mediates thrombospondin-mediated thrombocyte aggregation Thrombocyte aggregation was carded out according to Born 1962. TSP-1 (25 μg/ml) was pipetted into an aggregation-cuvette containing gel-filtered platelets (200,000/μl) in Hepes-Tyrode buffer pH 7.4 containing 100 μg/ml fibrinogen. […] Addition of IDAAT led to a weak aggregation reaction Simultaneous addition of IDAAT and soluble TSP-1 led to a pronounced aggregation. FIG. 24: IDAAT mediates the microparticle formation of thrombocytes"}, "[6]": {"test_system": "TNF α", "test": "TNF α secretion of monocytes activated with S. aureus and interferon γ (ELISA)", "format": "cell-based", "conditions": "substance alone", "method": "FIG. 9: The IL-10 secretion of monocytes activated with S. aureus and interferon γ is increased by IDAAT. Thus IDAAT promotes the secretion of an interleukin which protects against LPS-induced lethality in animal experiments. The method used was carried out analogously to FIG. 8. IL-10 was determined by means of an ELISA. FIG. 10 (sequence in the figure title: SEQ ID NO:2): The TNF α secretion of monocytes activated with S. aureus and interferon γ is inhibited by the TSP-1 peptide […] NO: 2) (10a). […] TNF α was determined by means of an ELISA. The method used was carried out analogously to FIG. 8. FIG. 11: IDAAT inhibits the Arthus reaction in the ear of Balb-C mice • a) Mouse treated twice intraperitoneally at time 0 and 0+3 hours with 50 μg IDAAT each time. Arthus reaction in the left ear • b) Mouse treated intraperitoneally twice with control buffer. Arthus reaction in the left ear • c) BSA-FITC incorporated into the ears as a measure for the Arthus reaction in mice treated with IDAAT or control buffer. Arthus reaction in the left ear. FIG. 12: • a) dot plot of the thrombocyte-bacterial association • A: thrombocytes labelled with PE-conjugated anti-GPIX antibody (Beb 1) • B: bacteria (S. aureus) labelled with Syto 13 • C: bacteria-thrombocyte associates emitting both fluorescences • b) S. aureus (Cowan 1)-thrombocyte associates"}}}
{"compound": "O=C(O)CN(CCN(CC(=O)O)CC(=O)O)CC(=O)O", "note": "[EDTA]", "values": [{"measurement": "inhibition of IDAAT-mediated adhesion of thrombocytes to collagen", "setting": "[1]", "result": "completely inhibits"}, {"measurement": "inhibition of IDAAT-mediated adhesion of thrombocytes to thrombospondin (immobilized TSP-1)", "setting": "[1]", "result": "completely inhibits"}]}
{"compound": "TSP-1: thrombospondin-1, trimeric modular glycoprotein purified from human thrombocytes", "values": [{"measurement": "inhibition of IDAAT-mediated adhesion of thrombocytes to collagen", "setting": "[1]", "result": "inhibits"}, {"measurement": "inhibition of IDAAT-mediated adhesion of thrombocytes to thrombospondin (immobilized TSP-1)", "setting": "[1]", "result": "inhibits"}, {"measurement": "adhesion of thrombocytes to collagen", "setting": "[1]; FIG. 20, dose dependence", "result": "dose-dependently inhibits"}, {"measurement": "S. aureus (Cowan-1)-thrombocyte associates", "setting": "[2]; TSP-1 added in addition to IDAAT", "result": "further increase in the number of associates"}, {"measurement": "TSP-1 positive monocytes", "setting": "[3]", "result": "ca. 5%"}, {"measurement": "transmigration of monocytes", "setting": "[4]", "result": "stimulates the transmigration"}, {"measurement": "thrombocyte aggregation", "setting": "[5]", "result": "no aggregation"}]}
{"compound": "sulfatide", "values": [{"measurement": "inhibition of IDAAT-mediated adhesion", "setting": "[1]", "result": "do not inhibit"}]}
{"compound": "Thrombin [reference compound]", "values": [{"measurement": "increase of percentage of platelets carrying bacteria", "setting": "[2]; thrombin stimulation, release of TSP from α-granula", "result": 2.5, "unit": "fold"}]}
{"compound": "RFYVVMWK (listed as Homo sapiens) [TSP-1 peptide RFYVVMWK]", "values": [{"measurement": "release/secretion of TNF α", "setting": "[6]", "result": "inhibited"}]}
{"compound": "Heparan sulfate", "values": [{"measurement": "inhibition of IDAAT-mediated adhesion", "setting": "[1]", "result": "do not inhibit"}]}
